For one compound, EC50 results are on record in ChEMBL document CHEMBL5316306 (J Med Chem, 2023).

Each structure is given as a SMILES string.

Format in all cases: functional, cell-based
In experiment [1] the test system is RPMI-8226. The experiment in a line: Cytotoxicity against human RPMI-8226 cells after 72 hrs by celltitre-glo assay. The conditions noted are these: RPMI-8226, 72 h.
Experiment [2] deals with RPMI-8226. The experiment in a line: Synergistic cytotoxic activity against human RPMI-8226 cells after 72 hrs in presence of 0.5 uM of (S)-(3-((2-(2-(1H-indol-3-yl)-2-oxoacetamido)-4-(tert-butylamino)-4-oxobutanamido)methyl)phenyl)boronic acid by celltitre-glo assay.
The test system of experiment [3] is MM1.S. In words: Cytotoxicity against human MM1.S cells after 72 hrs by celltitre-glo assay.
Experiment [4] deals with MM1.S. In words: Synergistic cytotoxic activity against human MM1.S cells after 72 hrs in presence of 0.01 uM of (S)-(3-((2-(2-(1H-indol-3-yl)-2-oxoacetamido)-4-(tert-butylamino)-4-oxobutanamido)methyl)phenyl)boronic acid by celltitre-glo assay.

As for `COC[C@H](NC(=O)[C@H](CCC(=O)NC(C)(C)C)NS(=O)(=O)c1ccc(C)cc1)C(=O)NCc1ccc(F)c2ccccc12`, the EC50 (as a rule, the concentration giving half of the maximal effect) in the experiment with RPMI-8226 [1] stood at 690 nM; with RPMI-8226 [2], 6 nM; with MM1.S [3], 125 nM; with MM1.S [4], 125 nM.
